Assay results taken from patent US20240279602A1, “METHOD FOR PRODUCING CEREBRAL CORTICAL CELL PREPARATION DERIVED FROM HUMAN PLURIPOTENT STEM CELLS” (Kyoto University, priority 2021, published 2024).

System: human iPS cells (S2WCB1 strain, S2WCB3 strain)
Test: Efficiency of cerebral organoid formation after step (1) maintenance culture and induction of differentiation
Assay type: cell-based
Parameters: Efficiency of cerebral organoid formation (%): concentration or dose not given beside the values
Conditions: for Efficiency (%) of cerebral organoid formation: -Day 1 to Day 0, evaluated Day 35
Description: Step (1) and step (2) were performed according to a scheme illustrated in FIG. 3 or FIG. 5. Maintenance culture of human iPS cells (S2WCB1 strain, S2WCB3 strain) was performed in StemFit culture medium on a 6-well plate coated with iMatrix-511 (feeder-free).
The culture medium was exchanged with: • (1) a culture medium obtained by adding 5 μM SB431542 to StemFit culture medium without solution C (i.e., a bFGF-free culture medium) (FIG. 3); or • (2) Essential 6 culture medium (i.e., a bFGF-free, TGFβ-free culture medium) (FIG. 5), • and adhesion culture was performed for 1 day.
Step (2a) Induction of differentiation into neural cells was performed in a serum-free culture medium by using a method by Sakaguchi et al. (Stem Cell Reports, 13:458-473, 2019. doi: 10.1016/j.stemcr.2019.05.029.). Specifically, human iPS cells cultured in step (1) were dispersed into single cells by enzymatic treatment. The human iPS cells dispersed into single cells were seeded on a non-cell-adhesive 96-well culture plate (PrimeSurface 96 V-bottom plate, manufactured by Sumitomo Bakelite Co., Ltd.) (9,000 cells/well/100 μL), and subjected to suspension culture with Glasgow MEM (GMEM; Thermo Fisher Scientific Inc.) culture medium supplemented with 0.1 mM non-essential amino acids, 1 mM pyruvate, 0.1 mM 2-mercaptoethanol, 20% (v/v) KnockOut (TM) serum replacement, 100 U/mL penicillin, and 100 μg/ml streptomycin (hereinafter, also referred to as 20GMK) with further addition of 5 μM SB431542 (TGFβ signaling inhibitor; Tocris Bioscience) and 3 μM IWR1e (Wnt signaling inhibitor; Calbiochem), at 37° C. under 5% CO2 for 18 days. Culture medium exchange was performed every 3 days. Y-27632 was added to reach 50 μM on Day 0, and not added in the subsequent culture medium exchanges. Through the culture, cell aggregates were eventually obtained.
Step (2b) On Day 18, the cell aggregates obtained were transferred into a 90-mm dish, and subjected to shaking culture with an Orbital Shaker in DMEM/F12/GlutaMAX culture medium supplemented with 1×N2 supplement (Thermo Fisher Scientific Inc.), a chemically defined lipid concentrate (Invitrogen), 0.25 mg/mL fungizone (Gibco), 1% penicillin/streptomycin, and 0.1% amphotericin B at 37° C. under 20% 02 and 5% CO2 from Day 35 to Day 42. Culture medium exchange was performed every 3 to 4 days.
Efficiency (%) of cerebral organoid formation was calculated by the following expression.
In step (1) of the scheme in FIG. 3, culture was performed with a culture medium supplemented with any additive below during a period of −Day 1 to Day 0, induction of differentiation into neural cells was performed on Day 0, and the efficiencies of cerebral organoid formation were evaluated on Day 35. […] In FIG. 7, “None” indicates the absence of an additive.
Under the experimental system with (1) “bFGF-free-and-SB431542-supplemented culture medium”, which was obtained by adding 5 μM SB431542 to StemFit culture medium without solution C, in Example 1, periods for culture of iPS cells with “bFGF-free-and-SB431542-supplemented culture medium” were set as in a table below.

[1] = step (1) in bFGF-containing culture medium (StemFit with solution C)
[2] = step (1) in bFGF-free culture medium (StemFit without solution C)

Row | SMILES | structure of cell culture on Day 35 (immunostaining) (additive in bFGF-free culture medium in step (1) (Exp. F)) | Efficiency (%) of cerebral organoid formation [1] | Efficiency (%) of cerebral organoid formation [2] | Efficiency of cerebral organoid formation (%) (step (1) in Essential 6 (E6) culture medium supplemented with SB431542) | Efficiency (%) of cerebral organoid formation (step (1) in bFGF-containing culture medium (StemFit with solution C), listed as SB-431542) [%]
1 | O=C(Nc1cccc2cccnc12)c1ccc(N2C(=O)[C@@H]3[C@H](C2=O)[C@@H]2C=C[C@H]3C2)cc1 [IWR1e, 4-[(3aR,4S,7R,7aS)-1,3,3a,4,7,7a-hexahydro-1,3-dioxo-4,7-methano-2H-isoindol-2-yl]-N-8-quinolinyl-benzamide] | no cerebral cortex-like structure was formed | <1% | <5% |  | 
2 | c1ccc2c(-c3cnn4cc(-c5ccc(N6CCNCC6)cc5)cnc34)ccnc2c1 [LDN-193189] |  |  | <5% |  | 
3 | NC(=O)c1ccc(-c2nc(-c3ccc4c(c3)OCO4)c(-c3ccccn3)[nH]2)cc1 [SB431542, 4-[4-(1,3-benzodioxol-5-yl)-5-(2-pyridinyl)-1H-imidazol-2-yl]-benzamide] |  | less than 5% | high efficiency | 56.9 | <5
